Data published in US20260035338A1, “AMINO LIPID COMPOUND AND LIPID NANOPARTICLE FOR DELIVERING BIOACTIVE INGREDIENT” (SHENZHEN SHENXIN BIOTECHNOLOGY CO., LTD., priority 2022, published 2026).

Assays:
[1] = tested on: immune cell populations in the spleen and PBMC; test: Delivery efficiency of eGFP mRNA LNP to immune cell populations in spleen and peripheral blood (flow cytometry); type: in vivo; details: eGFP mRNA encapsulating LNP, intravenous, C57BL/6 mice, 12 hours, flow cytometry (FIG. 6 to 7)
Description: C57BL/6 mice (3 mice per group) were intravenously injected with eGFP mRNA encapsulating LNP. After 12 hours, the mice were dissected, and the spleen and peripheral blood, were collected to prepare single-cell suspensions of various tissues and organs. After blocking with Fc blocking antibodies and surface staining with fluorescent-labeled antibodies, flow cytometry was conducted to analyze the expression levels of eGFP in various immune cell populations to confirm the delivery efficiency of lipid nanoparticles comprising different amino lipid compounds to immune cell populations in different tissues and organs.
“Blank” in FIG. 6 and FIG. 7 refers to the control group injected with 100 μL Tris buffer.

BALB/c mice = test: In vivo delivery of Fluc mRNA-encapsulating LNP formulations, luciferase signal by In Vivo Imaging System (IVIS); details: tail vein injection (IV) 70 μL, female BALB/c mice, 6 hours after injection; for Average number of photons (Total in-vivo flux): LNP formulation encapsulating Fluc mRNA (Lipid:DSPC:CHO-HP:M-DMG-2000 48:10:40.5:1.5); for Average number of photons (Liver) / Average number of photons (Spleen): LNP formulation encapsulating Fluc mRNA
Description: Animal preparation: Female BALB/c mice of 6-8 weeks old were selected and raised in an SPF grade breeding room. Animal testing was conducted in strict accordance with the guidelines of national health institutions and animal ethics requirements.
In vivo Delivery: prior to injection of the test LNP formulation, the LNP formulation was gently and repeatedly inverted to thoroughly mix the sample of the formulation. A corresponding amount of the LNP formulation was aspirated with a 1 ml insulin syringe, and the LNP formulation was injected by tail vein injection (IV), with 3 mice in duplicate per formulation. Each mouse was injected with 70 μL of the corresponding LNP formulation encapsulating the luciferase mRNA (Fluc mRNA) prepared in Experimental Example 1.
6 hours after injection of LNP formulations, mice were injected with 200 μL D-Luciferin luciferase developing substrate (Catalog No. 122799; Manufacturer: Perkin Elmer). After the substrate was injected, the mice were anesthetized with isoflurane inhalation, and the injection time of luciferase developing substrate was recorded.
The encapsulation efficiency of the lipid nanoparticle encapsulating luciferase mRNA (Fluc mRNA) with a representative amino lipid compound and the fluorescence expression intensity induced by the same are shown in Table 4, with the LNP formulation containing SM-102, 1001 or ALC-0315 as a control LNP formulation. The preparation method of the control LNP formulation was basically the same as that of the LNP formulations in Experimental Example 1, with the difference lying in that the amino lipid compounds of the present disclosure were replaced with SM-102, 1001 or ALC-0315 in the preparation of the control LNP formulation.

| Compound | delivery efficiency to immune cell populations (eGFP expression) [1] | Average number of photons (Total in-vivo flux) (BALB/c mice) | Average number of photons (Liver) (BALB/c mice) | Average number of photons (Spleen) (BALB/c mice) |
| --- | --- | --- | --- | --- |
| CCCCCCOC(CCCOC(=O)CCCCCC(CCCCCC(=O)OCCCC(OCCCCCC)OCCCCCC)OC(=O)OCCCN(C)C)OCCCCCC [compound 2039] | different delivery preferences to different immune cells | 2.05E+08 | 4.26E+07 | 3.75E+07 |
| CCCCCCOC(CCCOC(=O)CCCCC(CCCCC(=O)OCCCC(OCCCCCC)OCCCCCC)OC(=O)OCCCN(CC)CC)OCCCCCC [compound 2042] | different delivery preferences to different immune cells | – | – | – |
| CCCCCCOC(CCCOC(=O)CCCCCC(CCCCCC(=O)OCCCC(OCCCCCC)OCCCCCC)OC(=O)OCCCN(CC)CC)OCCCCCC [compound 2045] | different delivery preferences to different immune cells | 5.83E+07 | 8.90E+06 | 1.89E+06 |
| CCCCCCOC(CCCOC(=O)CCCCCCCC(CCCCCCCC(=O)OCCCC(OCCCCCC)OCCCCCC)OC(=O)OCCCN(C)C)OCCCCCC [compound 2041] | different delivery preferences to different immune cells | 2.08E+08 | 4.16E+07 | 1.07E+07 |
| CCCCCCCOC(CCCOC(=O)CCCCCCCCC(CCCCCCCCC(=O)OCCCC(OCCCCCC)OCCCCCC)OC(=O)OCCCN(CC)CC)OCCCCCCC (stereo not shown) [compound 865] | – | 4.34E+07 | 8.60E+06 | 3.25E+05 |
| CCCCCOC(CCCCCOC(=O)CCCCCCCCC(CCCCCCCCC(=O)OCCCCCC(OCCCCC)OCCCCC)OC(=O)OCCCN(CC)CC)OCCCCC [compound 390] | – | 5.23E+07 | 7.04E+06 | 3.84E+05 |
| CCCCCCOC(CCCNC(=O)OCCCCCCCC(CCCCCCCCCOC(=O)NCC(OCCCCCC)OCCCCCC)OC(=O)OCCCN(CC)CC)OCCCCCC (stereo not shown) [compound 459] | – | 3.42E+07 | 5.09E+06 | 2.52E+06 |
| CCC/C=C\COC(=O)CCCOC(=O)CCCCCCCCC(CCCCCCCCC(=O)OCCCC(OC/C=C\CCC)OC/C=C\CCC)OC(=O)OCCCN(CC)CC (stereo not shown) [compound 438] | – | 5.78E+07 | 8.47E+06 | 1.07E+06 |
| CCCCCCOC(CCCOC(=O)CCCCCCCCC(CCCCCCCCC(=O)OCCCC(OCCCCCC)OCCCCCC)OC(=O)OCCCN1CCCC1)OCCCCCC [compound 396] | – | 1.85E+08 | 3.24E+07 | 9.78E+05 |
| CCCCCCOC(CCCOC(=O)CCCCCCCCC(CCCCCCCCC(=O)OCCCC(OCCCCC)OCCCCC)OC(=O)OCCCN(CC)CC)OCCCCCC (stereo not shown) [compound 861] | – | 6.67E+07 | 1.17E+07 | 3.52E+05 |
| CCCCCCCCOC(CCCOC(=O)CCCCCCCCC(CCCCCCCCC(=O)OCCCC(OCCCCCCC)OCCCCCCC)OC(=O)OCCCN(CC)CC)OCCCCCCCC (stereo not shown) [compound 868] | – | 3.04E+07 | 5.35E+06 | 1.74E+05 |
| CCCCCCOC(CCCOC(=O)CCCCCCCCC(CCCCCCCCC(=O)OCCCC(OCCCCCC)OCCCCCC)OC(=O)NCCCN1CCCCC1C)OCCCCCC (stereo not shown) [compound 399] | – | 9.00E+07 | 1.96E+07 | 2.05E+06 |
| CCCCC/C=C\C/C=C\CCCCCCCC(=O)OCC(COC(=O)CCC(OCCCCCCCC)OCCCCCCCC)COC(=O)OCCCN(CC)CC (stereo not shown) [compound 1001, reference compound] | – | 9.68E+07 | 9.38E+06 | 1.65E+07 |
| CCCCCCCCC(CCCCCCCC)OC(=O)CCCCCCCOC(=O)CCCCCCCCC(CCCCCCCCC(=O)OCCCC(OCCCCCC)OCCCCCC)OC(=O)OCCCN(CC)CC (stereo not shown) [compound 434] | – | 2.50E+07 | 3.52E+06 | 1.40E+05 |
| CCCCCCOCCCCOC(=O)CCCCCCCCC(CCCCCCCCC(=O)OCCCC(OCCCCCC)OCCCCCC)OC(=O)OCCCN(CC)CC (stereo not shown) [compound 440] | – | 2.30E+08 | 3.22E+07 | 2.14E+06 |
| CCCCCCCCC(=O)OCCCCCCCCOC(=O)CCCCCCCCC(CCCCCCCCC(=O)OCCCC(OCCCCCC)OCCCCCC)OC(=O)OCCCN(CC)CC (stereo not shown) [compound 441] | – | 3.09E+07 | 5.62E+06 | 5.52E+05 |
| CCCCCCCCOCCCC(=O)N(CCCN(C)C)C(CCCCCCCCC(=O)OCCCC(OCCCCCC)OCCCCCC)CCCCCCCCC(=O)OCCCC(OCCCCCC)OCCCCCC [compound 449] | – | 1.65E+08 | 2.94E+07 | 7.31E+06 |
| CCCCCCOC(CCCCOC(=O)CCCCCCCCC(CCCCCCCCC(=O)OCCCCC(OCCCCCC)OCCCCCC)OC(=O)OCCCN(C)C)OCCCCCC [compound 2036] | – | 5.60E+07 | 1.04E+07 | 5.75E+05 |
| CCCCCCCCCOC(CCCOC(=O)CCCCCCCCC(CCCCCCCCC(=O)OCCCC(OCCCCC)OCCCCC)OC(=O)OCCCN(CC)CC)OCCCCCCCCC (stereo not shown) [compound 864] | – | 3.66E+07 | 6.58E+06 | 2.33E+05 |
| CCCCCCCCOC(CCCOC(=O)CCCCCCCCC(CCCCCCCCC(=O)OCCCC(OCCCCCCCC)OCCCCCCCC)OC(=O)OCCCN(CC)CC)OCCCCCCCC [compound 859] | – | 2.31E+07 | 3.71E+06 | 7.21E+04 |
| CCCCCCOC(CCCOC(=O)CCCCCCCCC(CCCCCCCCC(=O)OCCCC(OCCCCCC)OCCCCCC)OC(=O)OCCC1CCCN1C)OCCCCCC (stereo not shown) [compound 398] | – | 1.79E+08 | 2.78E+07 | 6.36E+05 |
| CCCCCCCCCOC(CCCOC(=O)CCCCCCCCC(CCCCCCCCC(=O)OCCCC(OCCCCCCC)OCCCCCCCC)OC(=O)OCCCN(CC)CC)OCCCCCCCCC (stereo not shown) [compound 869] | – | 1.22E+07 | 2.15E+06 | 5.40E+04 |
| CCCCCCOC(CCCOC(=O)CCCCCCCCC(CCCCCCCCC(=O)OCCCCCCCC(=O)OCC)OC(=O)OCCCN(CC)CC)OCCCCCC (stereo not shown) [compound 436] | – | 2.50E+07 | 6.68E+06 | 5.08E+05 |
| CCCCCCOC(CCCOC(=O)CCCCCCCCC(CCCCCCCCC(=O)OCCCC(OCCCCCC)OCCCCCC)N(CCCN(C)C)C(=O)CCC)OCCCCCC [compound 452] | – | 3.27E+08 | 4.94E+07 | 2.22E+07 |
